Test results taken from publication PMC6277767, “Broad and Region-Specific Impacts of the Synthetic Cannabinoid CP 55,940 in Adolescent and Adult Female Mouse Brains” (Frontiers in Molecular Neuroscience, 2018).

Test system: CD1 female mouse brain lipidome
Experiment: Brain-region lipid levels (HPLC/MS/MS lipidomics) 2 h after single i.p. 3 mg/kg CP 55,940 vs vehicle
Format: in vivo
Settings: hippocampus
Experimental: The Bloomington Institutional Animal Care and Use Committee of Indiana University reviewed and approved the animal procedures. Female mice from the CD1 strain were utilized to match our study examining THC’s effects on the brain lipidome ([Leishman et al., 2018]). Mice were given a single i.p. injection of either 3 mg/kg CP or 1:1:18 cremophor:ethanol:saline vehicle (please refer to the section “3 mg/kg CP Is Relevant for Synthetic Cannabinoid Abuse and Has Stronger Effects on the Female Mouse Brain Lipidome During Adolescence” for a justification of dose and use of female mice). Three different age groups were given injections: PND 35 and PND 50 adolescents, and adult mice (PND 113). At least eight mice in each age group received CP and at least eight received vehicle. Matching the THC study time course ([Leishman et al., 2018]), mice were sacrificed via rapid decapitation 2 h after injection. Brains were immediately removed and flash-frozen in liquid nitrogen, and then stored at -80°C until dissections were performed. Brains were dissected on an ice-cold dissection plate into the following regions: STR, HIPP, CER, THAL, CTX, HYP, MID, and STEM. These abbreviations for these brain areas will be used exclusively when discussing the results generated by these specific dissections. Each dissected area was immediately placed in liquid nitrogen and then stored at -80°C until used for lipid extraction.
Tissue extracts were performed as previously described ([Bradshaw et al., 2006]; [Stuart et al., 2013]; [Raboune et al., 2014]; [Leishman et al., 2016a],[b], [2017], [2018]). First, samples were shock frozen in liquid nitrogen, weighed, and transferred to a centrifuge tube. The mass of the largest sample was multiplied by 50 to determine how many milliliters of HPLC-grade methanol (Fisher, Fair Lawn, NJ, United States) to add. Then, samples were spiked with 500 pmol deuterium-labeled NAGly (d8NAGly; Cayman Chemical, Ann Arbor, MI, United States). Samples were placed on ice in darkness for 2 h then individually homogenized and centrifuged at 19,000 × g for 20 min at 20°C. Supernatants were diluted with HPLC water (purified in house) to make a solution of 75% water, 25% supernatant. Lipids were partially purified on C18 solid phase extraction columns (Agilent, Palo Alto, CA, United States). A series of four elutions with 1.5 mL of 60%, 75%, 85%, and 100% methanol were collected ([Stuart et al., 2013]; [Leishman et al., 2016a],[b], [2018]).
As previously described ([Bradshaw et al., 2006]; [Tan et al., 2006]; [Smoum et al., 2010]; [Stuart et al., 2013]; [Tortoriello et al., 2013]; [Raboune et al., 2014]; [Leishman et al., 2016a],[b], [2017], [2018]), samples were analyzed using an Applied Biosystems API 3000 triple quadrupole mass spectrometer with electrospray ionization (Foster City, CA, United States). Using an Agilent XDB-C18 reversed phase analytical column and optimized mobile phase gradients, 20 μL from each elution were chromatographed. Two Shimadzu 10ADvp pumps (Columbia, MD, United States) provided the pressure for gradient elution. Mobile phase A: 20% methanol, 80% water (v/v) and 1 mM ammonium acetate (Sigma, St. Louis, MO, United States). Mobile phase B: 100% methanol, 1 mM ammonium acetate. Every method run began with 0% mobile phase B, reached 100% mobile phase B flowing at 0.2 mL/min, and gradually returned to 0% mobile phase B.
This screening library will be referred to as the lipidome when discussing data from this study. HPLC/MS/MS data were analyzed using Analyst software (Applied Biosystems) ([Bradshaw et al., 2006]; [Tan et al., 2006]; [Stuart et al., 2013]; [Tortoriello et al., 2013]; [Raboune et al., 2014]; [Leishman et al., 2016a],[b], [2017], [2018]). Chromatograms (Supplementary Figure 3) were generated by determining the retention time of analytes from the analytical column with a [M-1] or [M+1] parent peak and a fragmentation peak corresponding to the programmed values. […]

[1] = PND 50, 3 mg/kg CP 55,940 vs Veh
[2] = PND 50 female mice, 3mg/kg CP 55,940, mean

SMILES: CCCCCCC(C)(C)c1ccc([C@@H]2C[C@H](O)CC[C@H]2CCCO)c(O)c1 [CP 55,940]
- Linoleic acid, Magnitude (x Veh level) [1]: 0.73 x Veh level
- N-arachidonoyl alanine Magnitude (x Veh level) [1]: 0.71 x Veh level
- N-arachidonoyl alanine, Direction (relative to Veh) [1]: ↓
- N-arachidonoyl ethanolamine, Direction (relative to Veh) [1]: ↓
- N-arachidonoyl ethanolamine, Magnitude (x Veh level) [1]: 0.64 x Veh level
- N-arachidonoyl glycine Direction (relative to Veh) [1]: ↓
- N-arachidonoyl glycine Magnitude (x Veh level) [1]: 0.52 x Veh level
- N-arachidonoyl serine Direction (relative to Veh) [1]: ↓
- N-arachidonoyl serine Magnitude (x Veh level) [1]: 0.51 x Veh level
- N-arachidonoyl taurine Direction (relative to Veh) [1]: ↓
- N-arachidonoyl taurine Magnitude (x Veh level) [1]: 0.69 x Veh level
- N-arachidonoyl tyrosine, Direction (relative to Veh) [1]: ↑
- N-arachidonoyl tyrosine, Magnitude (x Veh level) [1]: 1.38 x Veh level
- N-docosahexaenoyl ethanolamine, Direction (relative to Veh) [1]: ↓
- N-docosahexaenoyl ethanolamine, Magnitude (x Veh level) [1]: 0.73 x Veh level
- N-linoleoyl ethanolamine, Direction (relative to Veh) [1]: ↓
- N-linoleoyl ethanolamine, Magnitude (x Veh level) [1]: 0.65 x Veh level
- N-linoleoyl serine Direction (relative to Veh) [1]: ↑
- N-linoleoyl serine Magnitude (x Veh level) [1]: 1.32 x Veh level
- N-oleoyl leucine Direction (relative to Veh) [1]: ↓
- N-oleoyl leucine Magnitude (x Veh level) [1]: 0.77 x Veh level
- N-oleoyl serine, Direction (relative to Veh) [1]: ↑
- N-oleoyl serine, Magnitude (x Veh level) [1]: 1.27 x Veh level
- PGE2 Direction (relative to Veh) [1]: ↑
- PGE2 Magnitude (x Veh level) [1]: 1.15 x Veh level
- PGF2α Direction (relative to Veh) [1]: ↑
- PGF2α Magnitude (x Veh level) [1]: 1.22 x Veh level
- 2-arachidonoyl glycerol level [2]: 2.77E-09
- 2-linoleoyl glycerol level [2]: 1.81E-10
- 2-oleoyl glycerol level [2]: 1.71E-09
- 2-palmitoyl glycerol level [2]: 2.49E-10
- 6-ketoPGF1α level [2]: 6.15E-11
- 11-OH-THC level [2]: BDL
- 11-nor-9-carboxyTHC level [2]: BDL
- Arachidonic acid level [2]: 1.73E-09
- Cannabidiol level [2]: BDL
- Linoleic acid level [2]: 5.21E-10
- N-arachidonoyl GABA level [2]: 2.39E-11
- N-arachidonoyl alanine level [2]: 1.94E-12
- N-arachidonoyl dopamine level [2]: BDL
- N-arachidonoyl ethanolamine level [2]: 2.58E-11
- N-arachidonoyl glycine level [2]: 4.78E-13
- N-arachidonoyl proline level [2]: BDL
- N-arachidonoyl serine level [2]: 5.36E-13
- N-arachidonoyl taurine level [2]: 8.7E-11
- N-arachidonoyl tryptophan level [2]: BDL
- N-arachidonoyl tyrosine level [2]: 2.3E-12
- N-docosahexaenoyl ethanolamine level [2]: 1.92E-11
- N-docosahexaenoyl glycine level [2]: 5.66E-14
- N-docosahexaenoyl methionine level [2]: BDL
- N-docosahexaenoyl proline level [2]: BDL
- N-docosahexaenoyl tryptophan level [2]: BDL
- N-docosahexaenoyl valine level [2]: BDL
- N-linoleoyl ethanolamine level [2]: 2.31E-11
- N-linoleoyl glycine level [2]: 8.35E-14
- N-linoleoyl methionine level [2]: BDL
- N-linoleoyl proline level [2]: BDL
- N-linoleoyl serine level [2]: 7.96E-11
- N-linoleoyl tryptophan level [2]: BDL
- N-linoleoyl valine level [2]: BDL
- N-nervonoyl valine level [2]: BDL
- N-oleoyl GABA level [2]: 1.53E-11
- N-oleoyl alanine level [2]: 2.17E-12
- N-oleoyl dopamine level [2]: BDL
- N-oleoyl ethanolamine level [2]: 8.7E-11
- N-oleoyl glycine level [2]: 1.25E-13
- N-oleoyl leucine level [2]: 7.72E-13
- N-oleoyl phenylalanine level [2]: 1.52E-13
- N-oleoyl proline level [2]: BDL
- N-oleoyl serine level [2]: 4.19E-10
- N-oleoyl tryptophan level [2]: BDL
- N-palmitoyl GABA level [2]: 1.72E-11
- N-palmitoyl alanine level [2]: 2.35E-12
- N-palmitoyl ethanolamine level [2]: 2.9E-11
- N-palmitoyl glycine level [2]: 5.47E-12
- N-palmitoyl leucine level [2]: 1.17E-12
- N-palmitoyl methionine level [2]: 9.9E-12
- N-palmitoyl phenylalanine level [2]: 9.31E-14
- N-palmitoyl proline level [2]: BDL
- N-palmitoyl serine level [2]: 1.51E-11
- N-palmitoyl tryptophan level [2]: BDL
- N-palmitoyl tyrosine level [2]: 9.92E-13
- N-stearoyl GABA level [2]: 1.36E-11
- N-stearoyl alanine level [2]: 2.21E-12
- N-stearoyl ethanolamine level [2]: 1.21E-11
- N-stearoyl glycine level [2]: 2.09E-12
- N-stearoyl leucine level [2]: 1.45E-12
- N-stearoyl phenylalanine level [2]: 9.22E-14
- N-stearoyl proline level [2]: BDL
- N-stearoyl serine level [2]: 3.94E-11
- N-stearoyl tryptophan level [2]: BDL
- Oleic acid level [2]: 5.52E-10
- PGE2 level [2]: 5.28E-10
- PGF2α level [2]: 3.99E-10
- PhosphoLEA level [2]: 9.47E-12
- THC level [2]: BDL
- 2-arachidonoyl glycerol level, Mean (adult, 3 mg/kg CP 55,940): 2.63E-09
- 2-linoleoyl glycerol level, Mean (adult, 3 mg/kg CP 55,940): 1.64E-10
- 2-linoleoyl glycerol: Direction (relative to Veh) (adult, 3 mg/kg CP 55,940): ↓
- 2-linoleoyl glycerol: Magnitude (x Veh level) (adult, 3 mg/kg CP 55,940): 0.74 x Veh level
- 2-oleoyl glycerol level, Mean (adult, 3 mg/kg CP 55,940): 1.58E-09
- 2-palmitoyl glycerol level, Mean (adult, 3 mg/kg CP 55,940): 1.43E-10
